Reference: patent US20060030497A1, “Conveyor track or container lubricant compositions” (priority 2004, published 2006)

Experiment: Spreading test: drop on a polybutene surface in a Petri dish, compared with water
Format: physicochemical
Conditions: water containing 0.1% by weight of spreading agent; drop of 50μ on polybutene; pure water about 10 mm
Excerpt: Compositions of the present invention have the advantage that they spread more efficiently and completely on polymeric conveyor surfaces than previously known conveyor lubricant compositions containing polydimethylsiloxane. […] When the lubricant is applied to a polymeric conveyor surface, the conveyor surface soon becomes very hydrophobic due to the adsorption and/or absorption of the silicone oil lubricant on the surface. The lubricant persists on the surface so that it presents a very hydrophobic surface to subsequently applied lubricant. The lubricants of the present invention readily wet the oil soaked silicone lubricant surface as evidenced by the lubricants rapidly spreading on the surface without beading. […]
A useful test to determine the spreading ratios of the lubricants of the present invention is to compare spreading on a standard polybutene surface in a Petri dish. In this test, a drop of 50μ of the composition to be measured is applied to a polybutene surface in a Petri dish and after 30 seconds the linear movement of the liquid is measured by taking the average diameter of the substantially circular liquid. Pure water has been measured to have a diameter of about 10 mm. […]
The compositions prepared above were diluted at a ratio of 1 part lubricant to 200 parts water. […] The spreading ratio of the lubricant was measured using the test as described above. […]

## heptamethyl trisiloxane with a hydroxy terminated polyethyleneoxide pendant group [Silwet® L-7608]
  movement of the drop (average diameter of the liquid) after 30 seconds: 110 mm
